Measurements from article PMC4514850, “A Novel TGR5 Activator WB403 Promotes GLP-1 Secretion and Preserves Pancreatic β-Cells in Type 2 Diabetic Mice” (PLoS ONE, 2015).
Entries after “also recorded” stand apart in the source; their conditions may differ.

Key:
db/db mice [1] = test: pancreas histology (H&E, IHC) of treated db/db mice; assay type: in vivo
Protocol: Analysis of islet cell mass was performed using conventional methods. In brief, mice were sacrificed by cervical dislocation. The body part of the pancreas was rapidly excised, fixed in 10% neutral buffered formalin solution for 24 h and embedded in paraffin, then sectioned at 5 μm ready for hematoxylin and eosin (H&E) staining and immunohistochemistry staining (IHC). The latter was carried out using rabbit anti-insulin polyclonal antibody (Cat. no. 4590, 1:600) and rabbit anti-glucagon monoclonal antibody (Cat. no. 8233s, 1:200) from Cell Signaling Technology.
Fig 5 WB403 preserved the mass of pancreatic β-cells and normal distribution of α and β-cells. (A) H&E staining of pancreas from db/db mice, and statistical result. Islets were sized by the Image J analysis software on alternated pancreatic sections spaced each by 100 μm. (B) Immunohistochemical analysis of pancreatic sections by anti-insulin antibody or anti-glucagon antibody. (C) H&E staining of pancreas from HFD/STZ mice, and statistical result. Results are representative islets from each group. 1–5 in the column graph on the right represents normal mice, diabetic mice treated with vehicle, WB403 50 mg/kg, WB403 100 mg/kg, sitagliptin 100 mg/kg respectively (n = 5). *p<0.05, **p<0.01, ***p<0.001 vs. diabetes-vehicle group.

hGPR119 = biological target: T1, hGPR119 (Homo sapiens, UniProt Q8TDV5); test: GPR119-dependent cAMP accumulation in transfected 293T cells; assay type: cell-based; conditions: 10, 20 μmol/l
T1 construct: host or cells: 293T cells, transient transfection with pGPR119
T1 sequence (Q8TDV5 1-335): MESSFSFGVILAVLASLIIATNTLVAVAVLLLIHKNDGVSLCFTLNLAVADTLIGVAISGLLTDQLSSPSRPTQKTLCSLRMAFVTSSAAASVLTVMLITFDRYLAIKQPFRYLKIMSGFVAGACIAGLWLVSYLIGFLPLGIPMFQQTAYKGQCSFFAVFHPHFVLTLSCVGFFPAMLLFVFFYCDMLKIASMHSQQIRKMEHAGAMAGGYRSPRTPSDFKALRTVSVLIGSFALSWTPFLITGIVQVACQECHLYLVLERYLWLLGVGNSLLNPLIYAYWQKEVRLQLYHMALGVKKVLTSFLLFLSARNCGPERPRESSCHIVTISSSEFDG
Protocol: For human TGR5 luciferase (luc) assay, 293T cells were co-transfected with pCRE-luc, pTGR5 (kind gift from Prof. Johan Auwerx, Ecole Polytechnique Fédérale de Lausanne, Lausanne, Switzerland) and pRenilla (Promega, USA). WB403 was added 5 h later. Cells were harvested after 16 h and subjected to luciferase analysis on Lumistar Optima chemiluminescent detector (BMG labtech, Germany). For cAMP testing, 293T cells transiently transfected with pTGR5 or pGPR119 (GeneCopoeia, USA) were washed by FBS-free DMEM, and stimulated with WB403 in FBS-free DMEM containing 3-isobutyl-1-methyl-xanthine (IBMX, Sigma). Cell lysates were collected 30 min later and used for cAMP ELISA assay. FLIPR Calcium 5 assay kit (Molecular Devices, USA) was used for calcium mobilization assay. 293-GPR40 stable cells (kindly provided by Prof. Naiming Zhou of Zhejiang University, Hanzhou, China) or 293 cells transient transfected with GPR120 were seeded at 50,000 cells per well in black-walled clear-bottomed 96-well plates (Costar). […] Increase of the intracellular Ca^2+ concentration was monitored by Flexstation 3 system (Molecular Devices, USA).
The GLP-1 (active) ELISA kit was purchased from Millipore, and insulin ELISA kit was from Mercodia. For quantitative determination of cAMP, a competitive enzyme immunoassay kit from R&D system was used. […]

db/db mice [2] = test: 4-week treatment of db/db mice; assay type: in vivo
Protocol: Five-week old male ICR mice and db/db (C57BL BKS cg-M+/+ lepr-/-) mice were purchased from Shanghai SLAC Laboratory Animal Co., Ltd. (Shanghai, China). Mice were housed 4–5 per cage and allowed access to normal chow diet and autoclaved water freely. They were fed at a constant room temperature (25°C) with a 12-h light (7:00 AM)/dark (7:00 PM) cycle. All the mice were monitored at least daily, and no adverse events were observed. In general, the db/db mice show a high food intake at 4-week old and become obese and develop type 2 diabetes at 8-week age. Postprandial 2 h blood glucose was assessed and mice with the similar degree of hyperglycemia and body weight were randomized into different groups in order to get a similar average PBG in each group.
Diabetic mice in group of four were treated by gavage with vehicle (0.5% carboxymethylcellulose, CMC, Sigma), WB403 50, 100 mg/kg or sitagliptin at 100 mg/kg daily for 4 weeks in db/db mice (n = 5 with chow diet), and 8 weeks in HFD/STZ mice (n = 8 with HFD, additional normal mice group with chow diet). During the entire dosing period, body weight, food intake and water intake were monitored three times per week, while FBG and PBG were measured weekly. Overnight fasted mice received an oral glucose challenge at 2 g/kg and postprandial 2 h blood glucose was measured. Animals were treated and assessed in the order of the vehicle, WB403 50, 100 mg/kg and sitagliptin 100 mg/kg group.
Fig 3 Effects of WB403 treatment in db/db mice. (A, B) FBG and PBG measured every week during the 4-week treatment period. (C, D) Serum levels of HbA1c, measured at the end of intervention by Adicon Clinical Laboratories (Shanghai, China) using an immunoturbidimetric assay on Beckman AU680 biochemical analyzer. (E) Average daily food intake per mouse during the treatment period. Data was collected three times per week. (F) Average daily water intake per mouse. (G) Body weight from different groups of mice. (H) Serum levels of insulin were measured at the end of intervention. Values are mean ± SEM (n = 5). *p<0.05, **p<0.01, ***p<0.001 vs. vehicle group.

[3] = db/db mice, 50, 100 mg/kg daily by gavage, after one week
[4] = db/db mice, end of 4-week treatment

In the case of `CCc1cc(-c2nc(C)c(COCc3ccc(Br)cc3)s2)ccn1` [WB403, 4-(5-((4-bromobenzyloxy)-methyl)-4-methylthiazol-2-yl)-2-ethylpyridine], the “islet area vs vehicle” value (db/db mice [1]; H&E, after 4-week treatment) is reported as “bigger islet area as compared to the vehicle mice, though no significant difference was found”, the “α-cell and β-cell distribution in islets” value (db/db mice [1]; IHC anti-insulin / anti-glucagon) is reported as “significantly reduced α-cell in the islet core area and restored the normal cell distribution pattern” and the “hGPR119 dependent cAMP accumulation” value (hGPR119) is reported as “did not show significant stimulation activity; also recorded: no significant stimulation effect”. The body weight (db/db mice [2]; db/db mice, 4-week treatment) was “did not vary significantly”, the food intake (db/db mice [2]; db/db mice, 4-week treatment) was “did not vary significantly” and the water intake (db/db mice [2]; db/db mice, 4-week treatment) was “decreased”. For the same compound, the FBG vs vehicle (db/db mice [2]; [3]) was “significantly decreased”, the PBG vs vehicle (db/db mice [2]; [3]) was “significantly decreased” and the “HbA1c levels vs vehicle” value (db/db mice [2]; [4]) was “significantly lower”. For the same compound, the serum insulin levels (db/db mice [2]; [4]) was “higher insulin levels”.
